Like-named read-outs stand apart in the source and are kept apart here. Where only a bound is given, the exact number is not on record here.

One series has as its system Haemonchus contortus. Description: Method A: Haemonchus contortus L1 larvae, microtitre plate screen. Particulars: 96 h, read-out: motility inhibition.
The nature of series [1]: Method G: permeability in the Caco-2/TC7 in vitro model. As to conditions: human, Caco-2, pH 6.5. In general terms: Caco-2 cells form a polarised layer with tight junctions and transporters.
The subject of series [2] is microfilaria of Dirofilaria immitis. Description: Method F: microfilaria of Dirofilaria immitis, survival at 24 hours.
The test system of the next series is Cooperia oncophora. The series is described as follows: Method C: Cooperia oncophora L1 larvae in vitro. As to conditions: 96 h, read-out: inhibition of motility.
[3] abbreviates: survival of microfilaria at 24 hours.

For orientation: inhibition means the drop in the measured response relative to a control, in per cent. The Papp A→B is how fast a substance crosses the layer from the apical side. High values mean fast passage, low ones slow passage. Turning to `O=C(CO[C@H]1CC[C@H](Nc2ccc([N+](=O)[O-])c(C(F)(F)F)c2)CC1)N1CCN(C(=O)C2Cc3cc(F)ccc3O2)CC1` (stereo partly drawn) [Compound 80, 1-[4-(5-fluoro-2,3-dihydro-benzofuran-2-carbonyl)-piperazin-1-yl]-2-[4-(4-nitro-3-trifluoromethyl-phenylamino)-cyclohexyloxy]-ethanone], in the series with Haemonchus contortus, the inhibition at 5 µg/mL is at least 90%. In series [1], the Papp A→B at 20 μM was determined as 12.1 ×10⁻⁶ cm/s.

In general, EC50 refers to the concentration that produces a half-maximal response. A high value points to lower potency in that assay. `N#Cc1ccc(N[C@H]2CC[C@H](OCC(=O)N3CCN(Cc4cc5cc(C(F)(F)F)ccc5o4)CC3)CC2)cc1C(F)(F)F` [Compound 306, 4-(4-{2-oxo-2-[4-(5-trifluoromethyl-benzofuran-2-ylmethyl)-piperazin-1-yl]-ethoxy}-cyclohexylamino)-2-trifluoromethyl-benzonitrile]: in the series with Haemonchus contortus, the inhibition at 5 µg/mL is at least 90%. In series [2], this compound yielded an EC50 of under 0.1 µg/mL. Further, in series [1], the Papp A→B at 20 μM was 9 ×10⁻⁶ cm/s.

As for `N#Cc1ccc(N[C@H]2CC[C@H](OCC(=O)N3CCN(Cc4ccc5ccc(C(F)(F)F)cc5n4)CC3)CC2)cc1C(F)(F)F` [Compound 333, 4-(4-{2-oxo-2-[4-(7-trifluoromethyl-quinolin-2-ylmethyl)-piperazin-1-yl]-ethoxy}-cyclohexylamino)-2-trifluoromethyl-benzonitrile], the inhibition at 5 µg/mL with Haemonchus contortus was at least 90%. In series [1], this compound showed a Papp A→B at 20 μM of 8.1 ×10⁻⁶ cm/s.

For the compound `O=C(CO[C@H]1CC[C@H](Nc2ccc([N+](=O)[O-])c(C(F)(F)F)c2)CC1)N1CCN(Cc2ccc3cc(C(F)(F)F)ccc3n2)CC1` [Compound 332, 2-[4-(4-nitro-3-trifluoromethyl-phenylamino)-cyclohexyloxy]-1-[4-(6-trifluoromethyl-quinolin-2-ylmethyl)-piperazin-1-yl]-ethanone], the inhibition at 5 µg/mL in the series on Haemonchus contortus is at least 90%. In addition, the Papp A→B at 20 μM in series [1] worked out at 6.5 ×10⁻⁶ cm/s.

Turning to `N#Cc1ccc(N[C@H]2CC[C@H](OCC(=O)N3CCN(Cc4cc5cc(Cl)ccc5o4)CC3)CC2)cc1C(F)(F)F` [Compound 274, 2-[(4-[[4-cyano-3-(trifluoromethyl)phenyl]amino]cyclohexyl)-oxy]1-[4-(5-chlorobenzofuran-2-ylmethyl)piperazin-1-yl]ethan-1-one], in the series with Haemonchus contortus, the inhibition at 5 µg/mL was at least 90%. Moreover, the EC50 in series [2] was under 1 µg/mL. This compound also returned a Papp A→B at 20 μM in series [1] of 9.2 ×10⁻⁶ cm/s.

As to `O=C(CO[C@H]1CC[C@H](Nc2ccc([N+](=O)[O-])c(C(F)(F)F)c2)CC1)N1CCN(CC2Cc3ccccc3O2)CC1` (stereo partly drawn) [Compound 24, 1-[4-(2,3-dihydro-1-benzofuran-2-ylmethyl)piperazin-1-yl]-2-[(4-[[4-nitro-3-(trifluoromethyl)phenyl]amino]cyclohexyl)oxy]ethan-1-one], the inhibition at 5 µg/mL in the series on Haemonchus contortus is at least 90%. In addition, in series [2] (setting [3]), the EC50 is under 1 µg/mL. In addition, the Papp A→B at 20 μM in series [1] worked out at 9.7 ×10⁻⁶ cm/s.

As to `N#Cc1ccc(N[C@H]2CC[C@H](OCC(=O)N3CCN(c4cnc5ccccc5c4)CC3)CC2)cc1C(F)(F)F` [Compound 335, 4-[[4-[2-oxo-2-[4-(3-quinolyl)piperazin-1-yl]ethoxy]cyclohexyl]amino]-2-(trifluoromethyl)benzonitrile], in the series on Haemonchus contortus, the inhibition at 5 µg/mL is at least 90%. Besides, the Papp A→B at 20 μM in series [1] was 15 ×10⁻⁶ cm/s.

In the case of `O=C(NCCO[C@H]1CC[C@H](Nc2ccc([N+](=O)[O-])c(C(F)(F)F)c2)CC1)C(=O)NCc1cc2cc(F)ccc2o1` [Compound 221, N^1-((5-fluorobenzofuran-2-yl)methyl)-N^2-(2-(4-(4-nitro-3-(trifluoromethyl)phenylamino)cyclohexyloxy)ethyl)oxalamide], in series [2] (setting [3]), the EC50 was under 1 µg/mL. In series [1], this compound showed a Papp A→B at 20 μM of 7.5 ×10⁻⁶ cm/s.

Regarding `N#Cc1ccc(N[C@H]2CC[C@H](OCC(=O)N3CCN(Cc4ccc5cc(C(F)(F)F)ccc5n4)CC3)CC2)cc1C(F)(F)F` [Compound 334, 4-(4-{2-oxo-2-[4-(6-trifluoromethyl-quinolin-2-ylmethyl)-piperazin-1-yl]-ethoxy}-cyclohexylamino)-2-trifluoromethyl-benzonitrile], the inhibition at 5 µg/mL with Haemonchus contortus was at least 90%. In addition, in series [1], the Papp A→B at 20 μM amounted to 11.9 ×10⁻⁶ cm/s.

As to `O=C(CO[C@H]1CC[C@H](Nc2ccc([N+](=O)[O-])c(C(F)(F)F)c2)CC1)N1CCN(Cc2cc3ccc(Cl)cc3o2)CC1` [Compound 322, 2-[(4-[[4-nitro-3-(trifluoromethyl)phenyl]amino]cyclohexyl)-oxy]1-[4-(6-chlorobenzofuran-2-ylmethyl)piperazin-1-yl]ethan-1-one], the inhibition at 5 µg/mL in the series on Haemonchus contortus is at least 90%. Further, in series [1], the Papp A→B at 20 μM came out at 7.9 ×10⁻⁶ cm/s.

For `N#Cc1ccc(N[C@H]2CC[C@H](OCC(=O)N3CCN(CC4Cc5cc(C(F)(F)F)ccc5O4)CC3)CC2)cc1C(F)(F)F` (stereo partly drawn) [Compound 84, 4-([4-[2-oxo-2-(4-[[5-(trifluoromethyl)-2,3-dihydro-1-benzofuran-2-yl]methyl]piperazin-1-yl)ethoxy]cyclohexyl]amino)-2-(trifluoromethyl)benzonitrile], in the series on Haemonchus contortus, the inhibition at 5 µg/mL is at least 90%. Moreover, the EC50 in series [2] is under 5 µg/mL. Besides, the Papp A→B at 20 μM in series [1] stood at 5.3 ×10⁻⁶ cm/s.

As to `O=C(CO[C@H]1CC[C@H](Nc2ccc([N+](=O)[O-])c(C(F)(F)F)c2)CC1)N1CCN(c2cnc3ccccc3c2)CC1` [Compound 336, 2-[4-[4-nitro-3-(trifluoromethyl)anilino]cyclohexoxy]-1-[4-(3-quinolyl)piperazin-1-yl]ethanone], in the series with Haemonchus contortus, the inhibition at 5 µg/mL is at least 90%. Further, the Papp A→B at 20 μM in series [1] was 7.9 ×10⁻⁶ cm/s.

`CN(c1ccc([N+](=O)[O-])c(C(F)(F)F)c1)[C@H]1CC[C@H](OCC(=O)N2CCN(Cc3cc4cc(C(F)(F)F)ccc4o3)CC2)CC1` [Compound 256, 2-[[4-[methyl[4-nitro-3-(trifluoromethyl)phenyl]amino]cyclohexyl]oxy]-1-(4-[[5-(trifluorom-ethyl)-1-benzofuran-2-yl]methyl]piperazin-1-yl)ethan-1-one]: in the series on Haemonchus contortus, the inhibition at 5 µg/mL was at least 90%. In series [2] (setting [3]), this compound displayed an EC50 of under 1 µg/mL. The compound also returned a Papp A→B at 20 μM in series [1] of 5.4 ×10⁻⁶ cm/s.

On to `O=C(NCCO[C@H]1CC[C@H](Nc2ccc([N+](=O)[O-])c(C(F)(F)F)c2)CC1)C(=O)NCc1cc2cc(Cl)ccc2o1` [Compound 222], for which, in the series on Haemonchus contortus, the inhibition at 5 µg/mL was at least 90%. In series [2] (setting [3]), this compound gave an EC50 of under 0.1 µg/mL. Moreover, in series [1], the Papp A→B at 20 μM was 5 ×10⁻⁶ cm/s.

On to `COc1ccc2oc(CN3CCN(C(=O)CO[C@H]4CC[C@H](Nc5ccc([N+](=O)[O-])c(C(F)(F)F)c5)CC4)CC3)cc2c1` [Compound 323, 2-[(4-[[4-nitro-3-(trifluoromethyl)phenyl]amino]cyclohexyl)-oxy]1-[4-(5-methoxybenzofuran-2-ylmethyl)piperazin-1-yl]ethan-1-one], for which the inhibition at 5 µg/mL with Haemonchus contortus is at least 90%. In series [1], the Papp A→B at 20 μM is 11.9 ×10⁻⁶ cm/s.

As for `N#Cc1ccc(N[C@H]2CC[C@H](OCC(=O)N3CCN(Cc4nc5cc(F)ccc5s4)CC3)CC2)cc1C(F)(F)F` [Compound 294, 4-[[4-[2-[4-[(5-fluoro-1,3-benzothiazol-2-yl)methyl]piperazin-1-yl]-2-oxo-ethoxy]cyclohexyl]amino]-2-(trifluoromethyl)benzonitrile], in the series on Haemonchus contortus, the inhibition at 5 µg/mL was at least 90%. In addition, the 50% effective concentration (EC50) in series [2] was under 5 µg/mL. Also, the Papp A→B at 20 μM in series [1] came to 8.2 ×10⁻⁶ cm/s.

Turning to `CN(c1ccc([N+](=O)[O-])c(C(F)(F)F)c1)[C@H]1CC[C@H](OCC(=O)N2CCN(c3ccc4cc(Cl)ccc4n3)CC2)CC1` [Compound 246, 1-[4-(6-chloroquinolin-2-yl)piperazin-1-yl]-2-[[4-[methyl[4-nitro-3-(trifluoromethyl)phenyl]amino]cyclohexyl]oxy]ethan-1-one], the inhibition at 5 µg/mL in the series with Haemonchus contortus and with Cooperia oncophora was at least 90% in each case. This compound gave an EC50 in series [2] of under 1 µg/mL.

Take `N#Cc1ccc(N[C@H]2CC[C@H](OCC(=O)N3CCN(CC4Cc5cc(Cl)ccc5O4)CC3)CC2)cc1C(F)(F)F` (stereo partly drawn) [Compound 82]: the inhibition at 5 µg/mL in the series on Haemonchus contortus was at least 90%. The compound further showed a Papp A→B at 20 μM in series [1] of 7.1 ×10⁻⁶ cm/s.

For `CN(c1ccc([N+](=O)[O-])c(C(F)(F)F)c1)[C@H]1CC[C@H](OCC(=O)N2CCN(c3ccc4cc(Br)ccc4n3)CC2)CC1` [Compound 269, 2-[(4-[methyl-[4-nitro-3-(trifluoromethyl)phenyl]amino]cyclohexyl)-oxy]1-[4-(6-bromoquinolin-2-yl)piperazin-1-yl]ethan-1-one], the inhibition at 5 µg/mL in the series on Haemonchus contortus and with Cooperia oncophora was at least 90% in each case. This compound displayed an EC50 in series [2] (setting [3]) of under 5 µg/mL.

For `O=C(CO[C@H]1CC[C@H](Nc2ccc([N+](=O)[O-])c(C(F)(F)F)c2)CC1)N1CCN(Cc2ccc3c(C(F)(F)F)cccc3n2)CC1` [Compound 329, 2-[4-(4-nitro-3-trifluoromethyl-phenylamino)-cyclohexyloxy]-1-[4-(5-trifluoromethyl-quinolin-2-ylmethyl)-piperazin-1-yl]-ethanone], in the series with Haemonchus contortus, the inhibition at 5 µg/mL was at least 90%. In series [1], this compound gave a Papp A→B at 20 μM of 5.6 ×10⁻⁶ cm/s.

For `O=C(CO[C@H]1CC[C@H](Nc2ccc([N+](=O)[O-])c(C(F)(F)F)c2)CC1)N1CCN(Cc2nc3cc(F)ccc3o2)CC1` [Compound 285, 2-[(4-[[4-nitro-3-(trifluoromethyl)phenyl]amino]cyclohexyl)-oxy]1-[4-(5-fluorobenzoxazol-2-ylmethyl)piperazin-1-yl]ethan-1-one], in the series on Haemonchus contortus, the inhibition at 5 µg/mL is at least 90%. Further, in series [1], the Papp A→B at 20 μM is 12 ×10⁻⁶ cm/s.

Take `O=C(CO[C@H]1CC[C@H](Nc2ccc([N+](=O)[O-])c(C(F)(F)F)c2)CC1)N1CCN(c2nc3cc(F)ccc3s2)CC1` [Compound 237, 1-[4-(5-fluoro-1,3-benzothiazol-2-yl)piperazin-1-yl]-2-[[4-[[4-nitro-3-(trifluoromethyl)pheny-1]amino]cyclohexyl]oxy]ethan-1-one]: the inhibition at 5 µg/mL with Haemonchus contortus and in the series with Cooperia oncophora was at least 90% throughout. The same compound returned an EC50 in series [2] (setting [3]) of under 0.1 µg/mL.

Consider `C[C@@H]([C@H]1Cc2cc(F)ccc2O1)N1CCN(C(=O)COC2CCC(Nc3ccc([N+](=O)[O-])c(C(F)(F)F)c3)CC2)CC1` (relative stereo) [Compound 260, 1-(4-((S)-1-((R)-5-fluoro-2,3-dihydrobenzofuran-2-yl)ethyl)piperazin-1-yl)-2-(4-(4-nitro-3-(trifluoromethyl)phenylamino)cyclohexyloxy)ethanone], for which the inhibition at 5 µg/mL in the series on Haemonchus contortus and in the series with Cooperia oncophora was at least 90% throughout. In series [2] (setting [3]), this compound displayed an EC50 of under 1 µg/mL.

For the origin of these results see US9249102B2 (priority 2012, dated 2016).
